Results on ten molecules are retold here after US20120207861A1, “BIOCIDAL COMPOSITION AND METHOD FOR TREATING RECIRCULATING WATER SYSTEMS” (priority 2006, published 2012).

The test system of assay [1] is fungi Paecilomyces and Trichoderma. Nature of the assay: Prevention secondary screen: fungal plate counts. It is filed as cell-based. The settings on record: Table 4.
For assay [2], the system named is viable bacteria in pool water and sand with established biofilm. Nature of the assay: Remedial secondary screen: failed model pool, reduction of viable microorganisms in water and sand. The settings on record: FIGS. 1 and 2. It is filed as cell-based. How it is done: The secondary screen methodology is based upon a laboratory scale model of a swimming pool. A volume (800 ml) of synthetic swimming pool water (Calcium chloride dihydrate and Sodium hydrogen carbonate solution) is pumped through a body of swimming pool filter sand, by means of a peristaltic pump. The water temperature of each system is maintained in the range of 80-90° F. The systems are allowed to fail resulting in turbid water and heavy bacterial and fungal growth. This is to simulate a swimming pool that has been improperly maintained and has a problem. The purpose of this test is to evaluate the ability of a single biocide or combination of biocides with adjuvants for controlling the organisms present in both the water and the filter sand. Turbidity is not a key measure because the suspended solids are too fine for filtration so they would need to be removed with a separate chemical treatment such as flocculation. To the water, chemicals may be added as required. […] Hydrogen peroxide is added at concentrations of 0-27.5 ppm at the start of the experimentation. The secondary model system is challenged on a daily basis with eight species of bacteria and four species of fungi typically found in swimming pool water. These microorganisms include species of the fungi Paecilomyces and Trichoderma, and species of the bacteria Alcaligenes, Chryseobacterium and Sphingomonas. Each inoculation represents a total addition of 0.8×10^6 microorganisms per model apparatus. A volume (5 ml) of synthetic bather load is added to the system on a daily basis, as a nutrient source for the microorganisms present in the system. The bather load consists of carbon, nitrogen and macro/micro nutrient sources such as urea, albumin, creatinine, lactic acid, uric acid, glucuronic acid, sodium chloride, sodium sulfate, ammonium chloride, sodium bicarbonate, potassium phosphate potassium sulfate. […] The biocidal treatments are added and reduction of viable microorganisms is measured. The biocidal treatments may be added a second time.

The subject of assay [3] is Bacteria (Alcaligenes, Chryseobacterium and Sphingomonas). Nature of the assay: Prevention in test pools: water bacteria counts. How it is done:
(§1) The test pools were run in the preventative mode to evaluate the effect of the sanitizers on the build up of bacteria and fungi in the system. The pool pumps were operated for a minimum of 8 hours per day. Each pool was challenged twice per week with eight species of bacteria and four species of fungi typically found in swimming pool water. These microorganisms include species of the fungi Paecilomyces and Trichoderma, and species of the bacteria Alcaligenes, Chryseobacterium and Sphingomonas. Each inoculation represents a total addition of 0.8×106 microorganisms per test pool. Synthetic bather load is added to the system on a weekly basis, as a nutrient source for the microorganisms present in the system. The bather load consists of carbon, nitrogen and macro/micro nutrient sources such as urea, albumin, creatinine, lactic acid, uric acid, glucuronic acid, sodium chloride, sodium sulfate, ammonium chloride, sodium bicarbonate, potassium phosphate potassium sulfate. The total number of viable bacteria and fungi present in each test pool was determined weekly, by conducting agar plate counts. Water samples are removed from each test pool, and using this sample a dilution series (in 10-1 steps, down to a 10-5 of the original sample) is prepared. Subsequently, an aliquot of each dilution is spread onto dry Cystine Lactose Electrolyte Deficient agar plates (for enumeration of bacteria) and dry Sabaroud-Dextrose agar plates (for enumeration of fungi). […] There were no chemical doses administered on Saturday or Sunday.

Assay [4] concerns eight species of bacteria and four species of fungi typically found in swimming pool water. Briefly: Prevention secondary screen: laboratory scale model of a swimming pool, water clarity and hydrogen peroxide loss. The class given is cell-based. The settings on record: for Number of Days of Clarity below 1.0 NTU / Number of Days of Clarity below 1.0 NTU with no Peroxide in System: Table 4.

Assay [5] shares this test system. Nature of the assay: Prevention in test pools: overall mold and bacterial control. How it is done:
The test pools were run in the preventative mode to evaluate the effect of the sanitizers on the build up of bacteria and fungi in the system. The pool pumps were operated for a minimum of 8 hours per day. Each pool was challenged twice per week with eight species of bacteria and four species of fungi typically found in swimming pool water. These microorganisms include species of the fungi Paecilomyces and Trichoderma, and species of the bacteria Alcaligenes, Chryseobacterium and Sphingomonas. Each inoculation represents a total addition of 0.8×106 microorganisms per test pool. Synthetic bather load is added to the system on a weekly basis, as a nutrient source for the microorganisms present in the system. The bather load consists of carbon, nitrogen and macro/micro nutrient sources such as urea, albumin, creatinine, lactic acid, uric acid, glucuronic acid, sodium chloride, sodium sulfate, ammonium chloride, sodium bicarbonate, potassium phosphate potassium sulfate. The total number of viable bacteria and fungi present in each test pool was determined weekly, by conducting agar plate counts. Water samples are removed from each test pool, and using this sample a dilution series (in 10-1 steps, down to a 10-5 of the original sample) is prepared. […]

Assay [6] has as its system Mold (fungi Paecilomyces and Trichoderma). Briefly: Prevention in test pools: water mold counts. How it is done: as §1
For assay [7], the system named is biofilm of fungal isolates (Paecilomyces lilacinus, Trichoderma spp.) and bacterial isolates (Alcaligenes species, Sphingomonas species). Nature of the assay: Remediation: 96-well plate mixed biofilm treated with biocides, resazurin readout. The settings on record: for Result (effect of adjuvant on DBNPA efficacy against biofilm): adjuvant 50 ppm with DBNPA in presence of PHMB; for Efficacy level (Effective Concentration with 6 ppm of PHMB): with 6 ppm PHMB, biofilm treated 24 hours at 28° C., resazurin. The class given is cell-based. How it is done:
Fungal isolates of common fungi found in swimming pools such as Paecilomyces lilacinus and Trichoderma spp. and bacterial isolates also common to swimming pools such as, i.e. Alcaligenes species and Sphingomonas species were used to construct a biofilm, which was treated with biocides, using the following method: […] An aliquot of the spore suspension was added to each well of a 96-well plate, except column 12. The plates were incubated for 18 hours at 28° C. Also, a mixture of bacterial suspension was prepared at a concentration of 2.34×10^5/ml in 20% […] broth. An aliquot of bacterial suspension was added to each well of the 96-well plate, where fungal spores were placed. The plates were incubated for 24 hours at 28° C. […] An aliquot of the chemical solution was added to each well of column 1 and 2. The solution was mixed in each well of column 2 and an aliquot of solution was transferred from each well of column 2 to each well of column 3. The dilution was repeated to column 11 and the solution from each well of column 11 after dilution was discarded. The culture broth was removed from each well of the incubated plate. An aliquot of 0.8% sodium chloride solution was added to each well, except column 12. The sodium chloride solution was then removed from each well. The prepared chemical solutions were transferred to the corresponding wells of the biofilm plate. The plate was incubated for 24 hours at 28° C. The chemical solution was removed from the plate and an aliquot of resazurin solution was added to each well including column 12. The plate was kept on the lab bench for 24-48 hours. The plate was read at 540 nm and 620 nm. The difference in absorbance between the two wavelengths indicated the performance of the biocides.

Assay [8] has as its system bacteria Alcaligenes, Chryseobacterium and Sphingomonas. Briefly: Prevention secondary screen: bacterial plate counts. Conditions: Table 4. The class given is cell-based.
Where [9] appears, read: DBNPA 1 ppm Daily Additions, in the absence of PHMB.
[10] abbreviates: Pool 2, 1.0 ppm/day DBNPA, Low Baquacil (10-20 ppm).
Where [11] appears, read: Pool 2, 1.0 ppm/day DBNPA, Recommended Baquacil (30-50 ppm).
Setting [12] is: Pool 6, 0.5 ppm/day DBNPA, Low Baquacil (10-20 ppm).
Where [13] appears, read: Pool 6, Tablet 0.3 ppm/day DBNPA, Recommended Baquacil (30-50 ppm), with hydrogen peroxide doses.
Setting [14] is: Pool 7, 2.0 ppm/day DBNPA, Low Baquacil (10-20 ppm).
[15] abbreviates: Pool 7, 2.0 ppm/day DBNPA, Recommended Baquacil (30-50 ppm).

On to `N#CC(Br)(Br)C(N)=O` [DBNPA, Dibromonitrilopropionamide], for which the “Fungal Counts at Clarity of 1.0 NTU or above” value was 3.0 × 10^2 CFU/ml in assay [1] (DBNPA 0.25 ppm Daily Additions), 2.0 × 10^2 CFU/ml in assay [1] (DBNPA 0.5 ppm Daily Additions) and 1.2 × 10^3 CFU/ml in assay [1] (setting [9]). In assay [2] (versus oxidizers and surfactants), the “reduction of viable bacterial and fungal populations (remedial performance)” value is “significantly better than the oxidizers and surfactants”. In assay [2] (remedial treatment of failed model system), the “log reduction of viable bacteria in the water” value was “improved performance over the non-oxidizing surfactants”. Besides, the “log reduction of viable bacteria in the sand” value in assay [2] (remedial treatment of failed model system, established biofilm) is reported as “superior”. The “Bacteria % 0 counts” value in assay [3] (setting [10]) is recorded as 83.6%; in assay [3] (setting [11]) it was 83.3%; in assay [3] (setting [12]), 88%; in assay [3] (setting [13]), 92.8%; in assay [3] (setting [14]) it was 89.6%; in assay [3] (setting [15]), 100%. For the same molecule, the “Bacteria % Counts >999 cfu/ml” value in assay [3] (setting [10]) was found to be 4.5%; in assay [3] (setting [11]) it was 2.4%; in assay [3] (setting [12]) it was 1.5%; in assay [3] (setting [13]) it was 0.0%; in assay [3] (setting [14]), 0.0%; in assay [3] (setting [15]) it was 0.0%. Further, the “Bacteria Avg Counts” value was found to be 561 cfu/ml in assay [3] (setting [10]); 74.0 cfu/ml in assay [3] (setting [11]); 150 cfu/ml in assay [3] (setting [12]); 5.0 cfu/ml in assay [3] (setting [13]); 22.0 cfu/ml in assay [3] (setting [14]); 0.0 cfu/ml in assay [3] (setting [15]). Moreover, the “Number of Days of Clarity below 1.0 NTU” value is recorded as 47 days in assay [4] (DBNPA 0.25 ppm Daily Additions), 54 days in assay [4] (DBNPA 0.5 ppm Daily Additions) and <12 days in assay [4] (setting [9]). The results for the “Number of Days of Clarity below 1.0 NTU with no Peroxide in System” value in assay [4] (DBNPA 0.25 ppm Daily Additions) and in assay [4] (DBNPA 0.5 ppm Daily Additions) were 0 days and 19 days, respectively. Besides, in assay [4] (experiment 2, DBNPA added daily at 1 ppm in the absence of PHMB), the “time to failure of the system (turbid water) versus PHMB alone or PHMB and DBNPA combinations” value was “failure of the system and development of turbid water significantly sooner”. For the same molecule, the “performance at preventing turbid water and controlling bacteria and fungi, compared to PHMB alone” value in assay [4] (experiment one, DBNPA weekly addition with PHMB) is listed as “did not perform as well as the PHMB only treatment”. The “average mold and bacterial counts when PHMB was increased to recommended ranges” value in assay [5] (all pools treated with DBNPA) was “significantly reduced”. In assay [5] (all pools treated with DBNPA versus control pools), the “improved performance over controls (average mold and bacterial counts)” value is given as 2-4 logs. The “Mold % 0 counts” value in assay [6] (setting [10]) is 59.7%; in assay [6] (setting [11]), 69.0%; in assay [6] (setting [12]), 76.1%; in assay [6] (setting [13]), 66.7%; in assay [6] (setting [14]) it was 74.6%; in assay [6] (setting [15]), 83.3%. Moreover, the “Mold % Counts >999 cfu/ml” value in assay [6] (setting [10]) is on record as 3.0%; in assay [6] (setting [11]) it was 0.0%; in assay [6] (setting [12]), 0.0%; in assay [6] (setting [13]), 0.0%; in assay [6] (setting [14]), 1.5%; in assay [6] (setting [15]), 0.0%. Besides, the “Mold Avg Counts” value turned out to be 4267 cfu/ml in assay [6] (setting [10]); 9.0 cfu/ml in assay [6] (setting [11]); 19.0 cfu/ml in assay [6] (setting [12]); 8.0 cfu/ml in assay [6] (setting [13]); 620 cfu/ml in assay [6] (setting [14]); 4.0 cfu/ml in assay [6] (setting [15]). The “mold control compared to the other DBNPA pools” value in assay [6] (Pool 2 at low PHMB (1.0 ppm/day DBNPA)) is recorded as “had difficulty controlling mold”. Besides, the “Effective concentration of DBNPA in presence of PHMB and Adjuvant” value was 1.6-3.13 ppm in assay [7] (Adjuvant DSPO 50 ppm); 3.13-6.25 ppm in assay [7] (Adjuvant DTEA 50 ppm); 6.25-12.5 ppm in assay [7] (Adjuvant Envirosweet 50 ppm); 6.25-12.5 ppm in assay [7] (Adjuvant Geogard 111A 50 ppm); 3.13-6.25 ppm in assay [7] (Adjuvant None); 1.5-3.13 ppm in assay [7] (Adjuvant SADA 50 ppm). Moreover, the “Effective concentration of DBNPA in presence of PHMB and Adjuvant” value in assay [7] (Adjuvant Span 60 50 ppm) was 3.13-6.25 ppm; in assay [7] (Adjuvant Sulfamic acid 50 ppm), 0.8-1.6 ppm; in assay [7] (Adjuvant Surfonic L24-22 50 ppm) it was 3.13-6.25 ppm; in assay [7] (Adjuvant Triton BG10 50 ppm) it was 3.13-6.25 ppm; in assay [7] (Adjuvant Worm 50 ppm), 1.6-3.13 ppm. For the same molecule, the “Bacterial Counts at Clarity of 1.0 NTU or above” value is 3.0 × 10^7 CFU/ml in assay [8] (DBNPA 0.25 ppm Daily Additions), 1.3 × 10^8 CFU/ml in assay [8] (DBNPA 0.5 ppm Daily Additions) and 9.9 × 10^7 CFU/ml in assay [8] (setting [9]).

With `CC(=O)C1C(=O)C=C(C)OC1=O` (stereo not drawn) [Geogard 111A, Dehydroxyacetic acid (dehydroacetic acid)], the “Result (effect of adjuvant on DBNPA efficacy against biofilm)” value (from here on “Result”) in assay [7] was “Negative impact”.

As for Sorbitan monooleate [Alkamuls BR], the “Efficacy level (Effective Concentration with 6 ppm of PHMB)” value (“Efficacy level” for short) in assay [7] is recorded as >100 ppm.

With “N-Alkyl (C12-16)-N,N-dimethyl-N-benzylammonium chloride [Uniquat QAC-50]”, the “Efficacy level” value in assay [7] is reported as >100 ppm.

In the case of POE (2) stearyl ether [Brij ® 72], the “Efficacy level” value in assay [7] was >100 ppm.

Take `CCCCCCCCCCCCCC(=O)O` [Myristian, Mystic acid]: the “Efficacy level” value in assay [7] is recorded as >100 ppm.

`CCCCCCCCCCCCN` [Armeen 12D, Dodecyl amines]: in assay [7], the “Efficacy level” value is reported as >100 ppm.

`O=C1c2ccccc2C(=O)c2ccccc21` [Envirosweet, 9,10 anthraquinone]: the “Result” value in assay [7] is on record as “Negative impact”.

For the molecule “Fatty alcohol polyglycol ether [Genapol C 050]”, the “Efficacy level” value in assay [7] was >100 ppm.

As for `NS(=O)(=O)O` [Sulfamic acid], the “Result” value in assay [7] was “most significant effect on lowering the concentration of DBNPA”.
